Reference: article PMC6143625, “A high throughput screen for next-generation leads targeting malaria parasite transmission” (Nature Communications, 2018)

Key:
[1] = tested on: P. falciparum stage V male gametocytes (male gamete formation); test: P. falciparum dual gamete formation assay (Pf DGFA), male readout (exflagellation), 48 h carry-over format; assay type: cell-based, Plasmodium falciparum NF54; conditions: primary screen, 2 uM, 48 h incubation, single replicate
Experimental: (§1) P. falciparum NF54 strain (originally isolated from an imported malaria case in the Netherlands in the 1980s; BEI Resources, cat. no. MRA-1000) asexual and sexual stages culture was performed as previously described. Gametocyte cultures were initiated at 1% asexual ring stage parasitaemia and 4% haematocrit in 40 ml final volume. To induce gametocyte production, complete culture medium (CM) (RPMI 1640 supplemented with 25 mM HEPES, 50 µg ml^−1 hypoxanthine, 2 g l^−1 NaHCO3 and 10% pooled human male type A+ serum) was replaced daily for 14 days without fresh erythrocyte addition. Human serum was obtained from Interstate Blood Bank, A^+ serotype; no aspirin 2 h before drawing and no antimalarials 2 weeks before drawing. On day 14 after culture induction, gametocyte production was assessed by thin smear and Giemsa staining, and exflagellation accurately counted in a haemocytometer. Gametocyte cultures with >0.2% exflagellation (compared to total erythrocyte cell number) were deemed acceptable for use in the Pf DGFA. Note, all human biological samples were sourced ethically and their research use was in accord with the terms of the informed consents under an IRB/EC approved protocol.
(§2) In screening mode, the assay was performed as described in Delves et al.[35] with a mean Z′ factor of 0.56 ± 0.14 (SD) (male) and 0.71 ± 0.17 (SD) (female). Pooled mature gametocyte cultures with the capacity to yield >0.2% exflagellation (of total cells) were diluted in CM to 14 million cells per ml and so that 700,000 cells were dispensed in 50 µl into each well of the warmed 384-well screening plates. Parasites were incubated in the plates with compounds for 48 h in a humidified chamber under 92%N2/5% CO2/3% O2 gas mix before gamete formation was triggered by addition of 10 µl per well ookinete medium (RPMI 1640 supplemented with 25 mM HEPES, 50 µg ml^−1 hypoxanthine, 2 g l^−1 NaHCO3, 100 µM xanthurenic acid) containing 0.5 µg ml^−1 anti-Pfs25 clone 4B7 (BEI Resources, cat. no. MRA-315) conjugated to the fluorophore Cy3 (GE Healthcare), and also by cooling the plate at 4 °C for 4 min and then a further 5 min at 28 °C. Exflagellation was recorded immediately by brightfield microscopy using a Nikon Ti-E widefield microscope at ×4 objective, ×1.5 zoom, recording a 10-frame video time-lapse over 2 s for each well. Afterwards, plates were incubated in the dark at 28 °C for a further 24 h to allow female gametes to maximally express Pfs25 on their surface. Female gamete formation was recorded by single-image fluorescence microscopy using the same microscope and magnification as above. Exflagellation and female gamete formation were quantified by specific algorithms designed with the open-source ICY Image Analysis software.
(§3) Assay performance statistics, such as signal to background ratio, Z′ and robust 3×SD activity cut-off were calculated using templates in ActivityBase XE (IDBS, Guilford, Surrey, UK). Hit population analysis and visualisation were conducted using Spotfire DecisionSite (Spotfire, Inc., Somerville, Massachusetts). The pIC50 (−log IC50) values were obtained using the ActivityBase XE nonlinear regression function in the full curve analysis bundle. In screening mode, the Pf DGFA achieved a mean Z′ factor of 0.56 ± 0.14 (SD) (male) and 0.71 ± 0.17 (SD) (female).

[2] = tested on: P. falciparum stage V female gametocytes (female gamete formation); test: P. falciparum dual gamete formation assay (Pf DGFA), female readout (Pfs25 expression), 48 h carry-over format; assay type: cell-based, Plasmodium falciparum NF54; conditions: primary screen, 2 uM, 48 h incubation, single replicate
Experimental: as §1
as §2, with “Parasites were incubated in the plates with compounds for 48 h in a humidified chamber under” left out
as §3

Row | SMILES | %Inhibition Male @2uM [1] [%] | %Inhibition Female @2uM [2] [%]
1 | CN(C)C(=O)CN1CCC(c2c(C(N)=O)sc3ncccc23)C1 (stereo not drawn) [DDD01056829] | 34.06 | <30
2 | CN1CC2(CCC(C(=O)N3CCOCC3)CC2)Oc2ccccc2C1=O (stereo not drawn) [DDD01056893] | 30.45 | <30
3 | O=C(NC1CC1)[C@H]1CN(Cc2ccccc2)C[C@@H]1C(=O)c1ccccc1 [DDD01056910] | 31.76 | <30
4 | CS(=O)(=O)N1CCCCC1c1ccc(Nc2cnccn2)nc1 (stereo not drawn) [DDD01057097] | 34.23 | <30
5 | CN1CCOC(C)(C(=O)Nc2nccs2)C1 (stereo not drawn) [DDD01057393] | 32.46 | <30
6 | O=C(Cn1cnc2cc3c(cc21)OCCCO3)NCCc1ccccc1 [DDD01057871] | <30 | 36.66
7 | COc1cccc(CC(=O)N2CCCC2c2nc(=O)c(C)c(C)[nH]2)c1 (stereo not drawn) [DDD01059601] | <30 | 33.02
8 | CNc1cncc(C2CCCN2c2cc(C)ncn2)n1 (stereo not drawn) [DDD01059901] | 44.44 | <30
9 | CC(=O)N1CCCC(c2ccccn2)C1 (stereo not drawn) [DDD01059909] | 30.93 | <30
10 | CN(C)C(=O)CN1CCC(c2cccc(Cc3ccc(F)cc3)n2)CC1 [DDD01060228] | 31.41 | <30
11 | CC(C)CC(=O)N1CCN(Cc2cc(-c3ccncc3)nn2C)CC1 [DDD01060230] | <30 | 78.93
12 | OC1(Cn2ccc3ncccc32)CCN(Cc2cc(F)cc(F)c2)CC1 [DDD01060275] | 30.37 | <30
13 | Cc1cncc(C(=O)N[C@@H]2CC[C@@H](N3CCOCC3)[C@@H]2O)c1 [DDD01060350] | <30 | 35.23
14 | CC(=O)N1CCN([C@@H]2CC[C@@H](NC(=O)c3cc(C)cs3)[C@H]2O)CC1 [DDD01060352] | <30 | 32.18
15 | CC(C)(N)C(=O)N1CCCC1c1cncc(Oc2ccccc2)n1 (stereo not drawn) [DDD01060400] | <30 | 49.04
16 | Cc1nc2ccc(C(=O)N3CCn4c(nnc4C4CC4)C3)cc2nc1C [DDD01060815] | <30 | 31.88
17 | O=C(C1CCCCC1)N1CCC(c2[nH]nc3nccnc23)CC1 [DDD01060967] | <30 | 38.46
18 | O=C(c1cn[nH]n1)N1CCCC1C1CCCCC1 (stereo not drawn) [DDD01061770] | <30 | 30.76
19 | Cc1noc(C)c1CNC1CCN(c2ccccc2OC(F)F)C1 (stereo not drawn) [DDD01061833] | <30 | 39.11
20 | CN(C)c1ccc(CNC(=O)Nc2ccc(S(=O)(=O)C(F)F)cc2)cc1 [DDD01062359] | <30 | 41.45
21 | Cc1ccc(OCCCC(=O)Nc2nonc2C)cc1C [DDD01063175] | <30 | 30.83
22 | Cc1noc(C(C)Nc2ccc3oc(C)nc3c2)n1 (stereo not drawn) [DDD01064591] | <30 | 37.30
23 | CC1CN(C(=O)c2cnn(-c3ccccn3)c2C(C)C)CC(C)(C)O1 (stereo not drawn) [DDD01064602] | <30 | 40.46
24 | CCOc1nnc(CN2CCN(CCOC)C(C)C2)s1 (stereo not drawn) [DDD01065018] | 30.92 | <30
25 | c1cc(NCc2ccsc2)cc(-c2nnc[nH]2)c1 [DDD01065418] | 31.81 | <30
26 | Cc1nc(C)c(C(=O)N2CCc3c(Cl)cccc32)o1 [DDD01065842] | 32.65 | <30
27 | Cc1[nH]c(C2(N)CCCCC2)nc(=O)c1C [DDD01066687] | <30 | 32.19
